3 molecules from ChEMBL document CHEMBL3045652, “Biorational glycol diesters as dietary toxins versus bioefficacy of sucrose octanoate against lepidopteran larvae” (Ind Crops Prod, 2012) can be followed below.

Molecules are shown by their SMILES. ≈ marks a conversion by molar mass, not a printed value. Calls of active or inactive are those of the source. The calls are words filed in the database; no cut-off is given here.

For test [1], the system named is Spodoptera litura. The test is described as follows: Antifeedant activity against third-instar larval stage of Spodoptera litura fed with artificial diet containing compound assessed as relative consumption rate at 3.98 mg/ml after 3 days (reference value: 2.13 +/- 0.18 mg/mg/day). The class given is functional.
In test [2] the test system is Helicoverpa armigera. The test is described as follows: Antifeedant activity against third-instar larval stage of Helicoverpa armigera fed with artificial diet containing compound assessed as efficiency index of ingested food at 3.94 mg/ml after 3 days (reference value: 52%). In kind it is functional.
In test [3] the test system is Helicoverpa armigera. The test is described as follows: Insecticidal activity against second-instar larval stage of Helicoverpa armigera fed with artificial diet containing compound assessed as growth inhibition after 7 days. The class given is functional, organism-based. Particulars: for EC50: 168 h.
The subject of test [4] is Spodoptera litura. Put plainly: Antifeedant activity against third-instar larval stage of Spodoptera litura fed with artificial diet containing compound assessed as relative growth rate at 3.98 mg/ml after 3 days (reference value: 1.37 +/- 0.12 mg/mg/day). The class given is functional.
Test [5] deals with Helicoverpa armigera. The test is described as follows: Antifeedant activity against third-instar larval stage of Helicoverpa armigera fed with artificial diet containing compound assessed as relative consumption rate at 3.94 mg/ml after 3 days (reference value: 1.88 +/- 0.14 mg/mg/day). In kind it is functional.
The test system of test [6] is Spodoptera litura. Put plainly: Antifeedant activity against third-instar larval stage of Spodoptera litura fed with artificial diet containing compound assessed as efficiency index of ingested food at 3.98 mg/ml after 3 days (reference value: 64.5%). The class given is functional.
In test [7] the test system is Helicoverpa armigera. The test is described as follows: Insecticidal activity against second-instar larval stage of Helicoverpa armigera fed with artificial diet containing compound assessed as mortality after 7 days. Particulars: 168 h. In kind it is functional.
In test [8] the test system is Spodoptera litura. The test is described as follows: Insecticidal activity against second-instar larval stage of Spodoptera litura fed with artificial diet containing compound assessed as mortality after 7 days. The class given is functional. As to conditions: 168 h.
The test system of test [9] is Helicoverpa armigera. Put plainly: Insecticidal activity against second-instar larval stage of Helicoverpa armigera assessed as mortality applied as spray after 72 hr. In kind it is functional.
The test system of test [10] is Spodoptera litura. Put plainly: Insecticidal activity against second-instar larval stage of Spodoptera litura assessed as mortality applied as spray after 72 hr. In kind it is functional.
Test [11] concerns Spodoptera litura. The test is described as follows: Insecticidal activity against second-instar larval stage of Spodoptera litura fed with artificial diet containing compound assessed as growth inhibition after 7 days. The class given is functional, organism-based. Particulars: for EC50: 168 h.
In test [12] the test system is Helicoverpa armigera. The test is described as follows: Antifeedant activity against third-instar larval stage of Helicoverpa armigera fed with artificial diet containing compound assessed as relative growth rate at 3.94 mg/ml after 3 days (reference value: 0.97 +/- 0.13 mg/mg/day). In kind it is functional.
For test [13], the system named is Helicoverpa armigera. The test is described as follows: Insecticidal activity against second-instar larval stage of Helicoverpa armigera assessed as increase in mortality applied as spray at 1 to 10 mg/ml after 72 hr. In kind it is functional, organism-based.
Test [14] concerns Helicoverpa armigera. Put plainly: Antifeedant activity against third-instar larval stage of Helicoverpa armigera fed with artificial diet containing compound assessed as efficiency index of ingested food at 6.02 mg/ml after 3 days (reference value: 52%). In kind it is functional.
The test system of test [15] is Helicoverpa armigera. The test is described as follows: Antifeedant activity against third-instar larval stage of Helicoverpa armigera fed with artificial diet containing compound assessed as relative growth rate at 6.02 mg/ml after 3 days (reference value: 0.97 +/- 0.13 mg/mg/day). The class given is functional.
Test [16] concerns Spodoptera litura. Put plainly: Insecticidal activity against second-instar larval stage of Spodoptera litura assessed as increase in mortality applied as spray at 1 to 10 mg/ml after 72 hr. The class given is functional, organism-based.
Test [17] concerns Spodoptera litura. The test is described as follows: Antifeedant activity against third-instar larval stage of Spodoptera litura fed with artificial diet containing compound assessed as relative growth rate at 3.72 mg/ml after 3 days (reference value: 1.37 +/- 0.12 mg/mg/day). The class given is functional.
The test system of test [18] is Helicoverpa armigera. The test is described as follows: Antifeedant activity against third-instar larval stage of Helicoverpa armigera fed with artificial diet containing compound assessed as relative consumption rate at 6.02 mg/ml after 3 days (reference value: 1.88 +/- 0.14 mg/mg/day). The class given is functional.
Test [19] has as its system Spodoptera litura. Put plainly: Antifeedant activity against third-instar larval stage of Spodoptera litura fed with artificial diet containing compound assessed as relative consumption rate at 3.72 mg/ml after 3 days (reference value: 2.13 +/- 0.18 mg/mg/day). In kind it is functional.
For test [20], the system named is Spodoptera litura. The test is described as follows: Antifeedant activity against third-instar larval stage of Spodoptera litura fed with artificial diet containing compound assessed as efficiency index of ingested food at 3.72 mg/ml after 3 days (reference value: 64.5%). In kind it is functional.
Test [21] relates to Spodoptera litura. The test is described as follows: Antifeedant activity against third-instar larval stage of Spodoptera litura fed with artificial diet containing compound assessed as relative consumption rate at 3.34 mg/ml after 3 days (reference value: 2.13 +/- 0.18 mg/mg/day). In kind it is functional.
In test [22] the test system is Helicoverpa armigera. Put plainly: Antifeedant activity against third-instar larval stage of Helicoverpa armigera fed with artificial diet containing compound assessed as relative consumption rate at 5.16 mg/ml after 3 days (reference value: 1.88 +/- 0.14 mg/mg/day). The class given is functional.
Test [23] has as its system Helicoverpa armigera. Put plainly: Antifeedant activity against third-instar larval stage of Helicoverpa armigera fed with artificial diet containing compound assessed as relative growth rate at 5.16 mg/ml after 3 days (reference value: 0.97 +/- 0.13 mg/mg/day). The class given is functional.
In test [24] the test system is Spodoptera litura. Put plainly: Antifeedant activity against third-instar larval stage of Spodoptera litura fed with artificial diet containing compound assessed as efficiency index of ingested food at 3.34 mg/ml after 3 days (reference value: 64.5%). The class given is functional.
In test [25] the test system is Spodoptera litura. The test is described as follows: Antifeedant activity against third-instar larval stage of Spodoptera litura fed with artificial diet containing compound assessed as relative growth rate at 3.34 mg/ml after 3 days (reference value: 1.37 +/- 0.12 mg/mg/day). In kind it is functional.
The subject of test [26] is Helicoverpa armigera. The test is described as follows: Antifeedant activity against third-instar larval stage of Helicoverpa armigera fed with artificial diet containing compound assessed as efficiency index of ingested food at 5.16 mg/ml after 3 days (reference value: 52%). In kind it is functional.

For the molecule `CCCCCCCC(=O)OCCOC(=O)CCCCCCC` [ETHYLENE GLYCOL DIOCTANOATE], the Activity in [1] was 2 mg/mg/day; in [4], 0.72 mg/mg/day; in test [5], 1.9 mg/mg/day; in test [12], 0.69 mg/mg/day. For the same molecule, the figures for the ECI in test [2] and in [6] were 36.5% and 8%, respectively. In addition, the “growth inhibition (GI)” value in test [3] and in [11] was “Dose-dependent effect” in each case. The EC50 (usually the concentration needed to bring the measured effect to its halfway point) in test [3] was found to be 2080 µg/mL (≈ 6.61 mM); in [11], 1980 µg/mL (≈ 6.3 mM). For the same molecule, the 50% lethal concentration (LC50) (as a rule, the concentration that kills 50% of the test population) came out at 3140 µg/mL (≈ 9.99 mM) in [7], 2000 µg/mL (≈ 6.36 mM) in test [8], 6500 µg/mL (≈ 20.7 mM) in test [9] and 6100 µg/mL (≈ 19.4 mM) in [10].

For the molecule `CCCC(=O)OCCOC(=O)CCC` [ETHYLENE GLYCOL DIBUTANOATE], the result in test [13] and in [16] was Active. The “growth inhibition (GI)” value in test [3] and in test [11] was “Dose-dependent effect” in each case. Further, the EC50 in [3] amounted to 2820 µg/mL (≈ 13.9 mM); in test [11] it was 1850 µg/mL (≈ 9.15 mM). Further, the ECI in test [14] is reported as 32.4%; in [20] it was 2%. Moreover, the Activity came to 0.55 mg/mg/day in test [15], 0.74 mg/mg/day in test [17], 1.7 mg/mg/day in test [18] and 2.04 mg/mg/day in test [19]. The 50% lethal concentration (LC50) in test [7] and in test [8] was 2000 µg/mL (≈ 9.89 mM) throughout.

`CCCCC(=O)OCCOC(=O)CCCC` [ETHYLENE GLYCOL DIPENTANOATE]: the outcome in test [13] and in [16] was Active. Moreover, the Activity in test [21] worked out at 2.09 mg/mg/day; in test [22], 1.82 mg/mg/day; in test [23], 0.58 mg/mg/day; in test [25], 0.64 mg/mg/day. In addition, the “growth inhibition (GI)” value in test [3] and in [11] was “Dose-dependent effect” throughout. The EC50 in test [3] amounted to 2120 µg/mL (≈ 9.21 mM); in [11], 1840 µg/mL (≈ 7.99 mM). Also, the ECI is 4% in test [24] and 31.9% in test [26]. In addition, the LC50 in test [7] worked out at 2000 µg/mL (≈ 8.68 mM); in test [8], 2340 µg/mL (≈ 10.2 mM).
